Patent publication US20250186520A1, “ONCOLYTIC VIRUS COMPOSITIONS AND METHODS FOR THE TREATMENT OF CANCER” (priority 2020, published 2025)

Columns and labels:
Gli36ΔEGFR cells = test: NK cell cytotoxicity (51Cr release) against TMZ-pretreated cells; format: cell-based, human
Procedure: TMZ, which is an imidazotetrazine that is converted to a compound capable of alkylating DNA, interferes with DNA replication and leading to cytotoxicity in proliferating cells, and has been in clinical trials for treating GBM. To detect whether OV-Cmab-CCL5 enhanced TMZ function for treating GBM, the combination therapy with OV-Cmab-CCL5 and TMZ in vivo and in vitro was performed. Gli36ΔEGFR cells were treated with 1 μM TMZ overnight, and the pretreated cells were ^51Cr-labeled and used as target cells. These cells were then incubated with 5 μg/ml Cmab-hCCL5 or vehicle for 30 min. The effector NK cells and target cells were then co-cultured at the ratios of 40:1, 20:1, and 10:1 for 4 hours and assayed for cytotoxicity. […] This function was also detected as induced by the supernatants from OV-Cmab-hCCL5-infected Gli36ΔEGFR cells. Consistent data were collected.

EGFR^− A2780 cells = test: EGFR binding assay by flow cytometry on EGFR-negative cells; set-up: species or system human; details: protein purified from CHO cells; vs IgG1 isotype control
Procedure: (§1) U251T2, U87ΔEGFR, and A4780 cells were pre-blocked with 2% BSA and incubated with 1, 5, or 10 μg/ml purified Cmab-hCCL5 or 1, 5, or 10 μg/ml human IgG1 isotype control for 30 min. Murine CT2A-hEGFR cells were pre-blocked with 2% BSA and then incubated with 1, 5, or 10 μg/ml purified Cmab-mCCL5 or 1, 5, or 10 μg/ml human IgG1 isotype control for 30 min. After incubation, all cells were washed twice, and human cell lines were stained with APC-conjugated anti-human Fc (Jackson ImmunoResearch, cat #209-605-098) or APC-conjugated anti-human CCL5 (Biolegend, cat #515506, 149103) antibodies, whereas the murine CT2A-hEGFR cells were stained with APC-conjugated anti-human Fc or PE-conjugated anti-mouse CCL5 antibodies, for 20 min. The stained cells were analyzed using a Fortessa X20 flow cytometer (BD Biosciences).

[1] = tested on: human NK cells co-cultured with GBM30 cells; test: NK cell activation assay (CD69, granzyme B by flow cytometry); format: cell-based; details: purified protein
Procedure: (§2) NK cell cytotoxicity was evaluated as previously described (13,64,65). Briefly, U251T2, GBM30, Gli36ΔEGFR, and CT2A-hEGFR cells were used as target cells. The target cells were labeled with ^51Cr for 1 h, followed by incubation with 5 μg/ml or 10 μg/ml of the Cmab-hCCL5 fusion protein or IgG1 isotype control for 30 min. The labeled target cells preincubated with the Cmab-hCCL5 fusion protein or IgG1 were co-cultured with isolated human primary NK cells at different effector:target ratios at 37° C. for 4 h. Release of ^51Cr was measured as counts per minute (cpm) with a MicroBeta(2) microplate radiometric counter (Perkin Elmer, Waltham, MA). […] The cell lysis percentages were calculated using the standard formula: 100×(cpm experimental release−cpm spontaneous release)/(cpm maximal release−cpm spontaneous release). […] The expression of CD69 and granzyme B, NK cell activation markers, were measured after 6-hour co-culture of NK cells and GBM30 cells with 5 μg/ml or 10 μg/ml of Cmab-hCCL5 at a ratio of 1:1 with a flow cytometer after the cells were stained with the anti-CD56 (BD, cat #557919) and anti-CD69 (BD, cat #562883) or anti-granzyme B (BD, cat #563388) antibodies. Following similar procedures, mouse CD69 was measured by an anti-CD69 (BD, cat #564683) antibody, and NK cells were marked by an anti-NKp46 (Biolegend, cat #137618) antibody.

[2] = tested on: human NK cells, macrophages, CD4^+ T cells, and CD8^+ T cells; test: Transwell cell migration assay, human immune cells; format: cell-based; details: protein purified from CHO cells; vs IgG1 isotype control
Procedure: The migration capability of NK cells, T cells, and macrophages was determined using transwell chambers (Corning). Serum-starved NK cells, T cells or macrophages (10^6/well) were seeded to an upper chamber. Recombinant human (rh) CCL5, recombinant mouse (rm) CCL5, purified Cmab-hCCL5 or Cmab-mCCL5, or the supernatant containing Cmab-hCCL5 or Cmab-mCCL5 secreted from OV-Cmab-hCCL5- or OV-Cmab-mCCL5-infected U251T2 GBM cells was added to the lower chamber. The chambers were incubated at 37° C. in 5% CO2 for 12 h. Cells that migrated to the lower face of the porous membrane in the lower chamber were counted. For the T cells and NK cells, the pore size of the transwell membrane used in this assay was 3 μm as previously described (61,62). For the macrophages, the pore size of the transwell membrane used in this assay was […] as previously described (63).

[3] = target: T1, EGFR (wtEGFR U251T2 and EGFRvIII U87ΔEGFR GBM cells) (Homo sapiens, UniProt P00533); test: EGFR binding assay and CCL5 expression assay by flow cytometry (anti-human Fc / anti-human CCL5)
T1 construct: U251T2 GBM cells, which express wild type EGFR (wtEGFR), U87ΔEGFR GBM cells, which express EGFRvIII; endogenous in cells; host or cells: U251T2 (wtEGFR) and U87ΔEGFR (EGFRvIII) human GBM cells
Procedure: as §1

[4] = tested on: EGFR (wtEGFR U251T2 and EGFRvIII U87ΔEGFR GBM cells); test: as above; details: protein purified from CHO cells
Procedure: as §1

[5] = tested on: U251T2 (wtEGFR), GBM30, Gli36ΔEGFR (EGFRvIII) GBM cells; test: NK cell ADCC, 51Cr release assay, EGFR+ targets; format: cell-based, human; details: purified protein; wtEGFR and EGFRvIII tumor cells; vs IgG1 isotype control
Procedure: as §2

[6] = tested on: human macrophages co-cultured with GBM30 cells; test: Quantitative PCR of human macrophage cytokine genes; format: cell-based; details: vs IgG1 isotype control
Procedure: For evaluating the effect of Cmab-hCCL5 on mRNA levels of typical human macrophage cytokine genes, human macrophages and GBM30 cells were co-cultured at a ratio of 1:1 for 6 hours with or without 5 μg/ml Cmab-hCCL5. The macrophages were stained with anti-human CD45 antibody and sorted using an Aria Fusion flow cytometer (BD Biosciences). The total RNA was extracted from the sorted macrophages for measuring the mRNA levels of human IL1B, IL6, IL12A, and NOS2 genes with their corresponding primers. 18s rRNA was used as an internal control.

GBM30 cells = test: Flow cytometry-based phagocytosis (ADCP) assay, human macrophages; format: cell-based; details: purified protein; vs IgG1 isotype control or vehicle
Procedure: For the phagocytosis assay of primary human macrophages, GBM30 cells stained with CFSE (Thermo Fisher, cat #C34554) were used as target cells. Human macrophages and target cells were co-cultured at a ratio of 1:2 for 6 hours with 5 μg/ml or 10 μg/ml of the Cmab-hCCL5 fusion protein or IgG1 isotype control in a humidified, 5% CO2 incubator at 37° C. in ultra-low-attachment 96-well U-bottom plates (Corning) in serum-free 1640 media (Life Technologies). The co-cultured cells were harvested by centrifuging at 400×g for 5 min at 4° C. and stained with an anti-human CD45 antibody (Biolegend, cat #368516) to identify macrophages. All flow cytometry data were collected using a Fortessa X20 flow cytometer (BD Biosciences). Phagocytosis was measured as the number of CD45^+CFSE^+ macrophages, quantified as a percentage of the total CD45^+ cells.

Molecule	NK cell cytotoxicity (Gli36ΔEGFR cells; 1 μM TMZ overnight pre-treatment alone)	NK cell cytotoxicity (Gli36ΔEGFR cells; 1 μM TMZ pre-treatment plus 5 μg/ml Cmab-hCCL5, vs either treatment alone)	binding to EGFR^− A2780 cells (anti-human Fc antibody) (EGFR^− A2780 cells)	CD69 expression on NK cells ([1]; 6 hours, vs IgG1 isotype control or GBM30 cells alone)	granzyme B expression in NK cells ([1]; relative to controls)	migration of human NK cells, macrophages, CD4^+ and CD8^+ T cells [2]	secretion of cetuximab or CCL5, comparison of Cmab-CCL5 and reverse-order CCL5-Cmab ([3]; FIGS. 14C, 14D: flow cytometry on U251T2 with anti-Fc / anti-hCCL5)	binding to surface-expressed EGFR (anti-Fc and anti-CCL5 antibodies) ([3]; protein produced by OV-Cmab-hCCL5-infected U251T2 GBM cells)	CCL5 on cell surface (anti-CCL5 antibody) ([4]; EGFR^+ cells)	binding to tumor cells (anti-human Fc antibody) ([4]; U251T2 (wtEGFR) and U87ΔEGFR (EGFRvIII) cells)	NK cell ADCC [5]	cytokine expression in human macrophages (real-time RT-PCR) [6]	ADCP against GBM30 cells by human macrophages (GBM30 cells)
Cn1nnc2c(C(N)=O)ncn2c1=O [TMZ, Temozolomide, reference compound]	enhanced NK cell cytotoxicity												
Cmab-hCCL5: bispecific knob-into-hole human IgG1 Fc fusion protein: cetuximab scFv arm and human CCL5 arm		significantly higher degree of NK cell cytotoxicity	indistinguishable from that of IgG1 isotype control	significantly increased the expression of CD69	increased granzyme B expression	dose-dependent increase in the migration	no difference	confirmed to bind to surface-expressed EGFR	detected CCL5 on EGFR^+ cell surfaces	selectively bound to tumor cells expressing wtEGFR or EGFRvIII	significantly induced NK cell ADCC	significantly increased IL-1B, IL-6, IL-12, and NOS2 expression	induced a significantly higher level of ADCP
